For 24 molecules, IC50 results are on record in patent US20260265229A1, “Small Molecule Modulators of IL-17A, Methods of Making and Methods of Using Thereof” (Ascletis Pharma (China) Co., Limited, priority 2023, published 2026).

One may read the IC50 as the concentration that inhibits the measured activity by half.

The target in this assay is T1, IL-17A (Homo sapiens, UniProt Q16552).
T1 construct: purchased R&D 7955-IL
T1 sequence (Q16552 24-155): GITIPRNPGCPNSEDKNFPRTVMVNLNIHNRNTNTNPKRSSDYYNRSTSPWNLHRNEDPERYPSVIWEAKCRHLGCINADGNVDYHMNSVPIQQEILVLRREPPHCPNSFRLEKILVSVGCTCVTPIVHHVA
The experiment in a line: HEK-Blue IL-17 cell assay (SEAP reporter, rhIL-17A/A stimulation). It is filed as cell-based. The following applies: HEK-Blue IL-17 cells with rhIL-17A/A, 20 hours at 37° C., absorbance at 405 nm. The method, then: 1. The test Compounds were 3-fold serial diluted from 10 mM for 10 doses in DMSO.
2. Prepare Reference Compounds (IL-17A-Inhibitor-1) were 3-fold serial diluted from 1 mM for 10 doses in DMSO.
3. Prepare 1000× Positive control (1 mM IL-17A-Inhibitor-1) and 1000× vehicle control (100% DMSO).
• a) Cells were cultured as the HEK-Blue™ IL-17 technical data sheet recommended. HEK-Blue IL-17 cells were assayed in the exponential growth phase. • b) Aspirate growth medium and rinse cells twice with PBS to remove phenol red. • c) Resuspend cells in test medium to a proper concentration. • d) Only cells with viability greater than 90% were used for assays. • e) Transfer 25nl of compound dilutions into 384-well assay plates using Echo655; • f) Seed 25 ul of HEK-Blue IL-17 cells at 8,000 cells/well into 384-well plate with rhIL-17A/A. • g) Cells were incubated for 20 hours at 37° C. under 5% CO2 atmosphere. • h) Transfer 2 ul of cells supernatant into per well of 384-well assay plates. • i) Add 20 ul of PNPP substrate. • j) Measure the Absorbance at 405 nm on Envision 2105 plate reader.
RLU signal (LUMempd) is calculated for each well. % Inhibition is calculated as follow: […]
Signalave_pc: The average signal for the positive controls across the plate.
Signalave_vc: The average signal for negative controls across the plate.
Calculate IC50 and Plot effect-dose curve of cmpds:
Calculate IC50 by fitting % Inhibition values and log of compound concentrations to nonlinear regression (dose response−variable slope) with Graphpad 8.0.

In the case of `CC(=O)N1CC(c2ccc(NC(=O)[C@@H](NC(=O)c3ccnn3C(C)C)C3CCCCCC3)cc2)[C@H](C(=O)N2CC(F)(F)C(F)(F)C2)C1` (stereo partly drawn) [Cis-62], the IC50 was 39.6 nM.

As to `COC(=O)N1C[C@H](c2ccc(NC(=O)[C@@H](NC(=O)c3ccnn3C(C)C)C3CCCCCC3)cc2)[C@H](C(=O)N2CC(F)(F)C2)C1` [Example 1, methyl (3S,4S)-3-(4-((S)-2-cycloheptyl-2-(1-isopropyl-1H-pyrazole-5-carboxamido)acetamido)phenyl)-4-(3,3-difluoroazetidine-1-carbonyl)pyrrolidine-1-carboxylate], half-maximal inhibition (IC50) was put at 15.3 nM.

The molecule `COC(=O)N1C[C@H](C(=O)N2CC(F)(F)C2)[C@@H](c2ccc(NC(=O)[C@@H](NC(=O)c3ccnn3C(C)C)C3CCCCCC3)cc2)C1` [Example 2] showed an IC50 of 110 nM.

For the molecule `CC(=O)N1C[C@H](c2ccc(NC(=O)[C@@H](NC(=O)c3ccnn3C(C)C)C3CCCCCC3)cc2)[C@H](C(=O)N2CC(F)(F)C2)C1` [Example 6], the IC50 was determined as 69 nM.

Regarding `COC(=O)N1CC(C(=O)N2CC(F)(F)C2)=C(c2ccc3cnc([C@@H](NC(=O)c4ccnn4C(C)C)C4CCC(F)(F)CC4)nc3c2)C1` [Example 46], the concentration for half-maximal inhibition (IC50) stood at 6040 nM.

`CC(=O)N1C[C@H](C(=O)N2CCN(C)CC2)[C@@H](c2ccc(NC(=O)[C@@H](NC(=O)c3ccnn3C(C)C)C3CCCCCC3)cc2)C1` [Example 49]: the midpoint of inhibition, the IC50, lay at 1860 nM.

`CC(C)n1nccc1C(=O)N[C@H](c1nc2c(F)cc(C3=C(C(=O)N4CC(F)(F)C4)CN(C(=O)OCc4ccccc4)C3)cc2[nH]1)C1CCCCCC1` [Example 50] registered an IC50 of 420 nM.

The molecule `CC(=O)N1CC(C(=O)N2CC(F)(F)C2)C(c2cc(F)c3nc([C@@H](NC(=O)c4ccnn4C(C)C)C4CCCCCC4)[nH]c3c2)C1` (stereo partly drawn) [Example 51] yielded an IC50 of 118 nM.

Molecule `CC(=O)N1C[C@H](C(=O)NCC(C)(F)F)[C@@H](c2ccc(NC(=O)[C@@H](NC(=O)c3ccnn3C(C)C)C3CCCCCC3)cc2)C1` [Example 52] registered an IC50 of 103 nM. The IC50 values of the last two molecules are within 1.5-fold of each other.

With `COC(=O)N1CC(C(=O)N2CC(F)(F)C2)C(c2cc(F)c3nc([C@@H](NC(=O)c4ccnn4C(C)C)C4CCCCCC4)[nH]c3c2)C1` (stereo partly drawn) [Example 53], the midpoint of inhibition, the IC50, lay at 532 nM. This IC50 is about 5.2-fold higher than that of the molecule before.

As for `CC(=O)N1C[C@H](C(=O)N2CC(F)(F)C(F)(F)C2)[C@@H](c2ccc(NC(=O)[C@@H](NC(=O)c3ccnn3C(C)C)C3CCCCCC3)cc2)C1` [Example 54], it took 28.6 nM to reach half-maximal inhibition (IC50).

For the molecule `COC(=O)N1C[C@H](C(=O)N2CC(F)(F)C2)[C@@H](c2ccc(NC(=O)[C@@H](NC(=O)c3ccnn3C(C)C)C3CCC(F)(F)CC3)cc2)C1` [Example 55], the IC50 came out at 944 nM.

For the molecule `COC(=O)N1C[C@H](C(=O)N2CC(F)(F)C2)[C@@H](c2ccc(NC(=O)[C@@H](NC(=O)c3nonc3C)C3CCC(F)(F)CC3)cc2)C1` [Example 56], the IC50 worked out at 1450 nM.

`COC(=O)N1C[C@H](C(=O)N2CC(F)(F)C(F)(F)C2)[C@@H](c2ccc(NC(=O)[C@@H](NC(=O)c3ccnn3C(C)C)C3CCCCCC3)cc2)C1` [Example 57] registered a half-maximal inhibitory concentration (IC50) of 46.8 nM.

As for `CC(C)n1nccc1C(=O)N[C@H](C(=O)Nc1ccc([C@H]2CN(C(=O)N(C)C)C[C@@H]2C(=O)N2CC(F)(F)C(F)(F)C2)cc1)C1CCCCCC1` [Example 58], half-maximal inhibition (IC50) was put at 39.3 nM.

On to `CC(C)n1nccc1C(=O)N[C@H](C(=O)Nc1ccc([C@H]2CN(C(=O)CCC(F)(F)F)C[C@@H]2C(=O)N2CC(F)(F)C(F)(F)C2)cc1)C1CCCCCC1` [Example 59], for which inhibition was half-maximal at 143 nM (IC50). This IC50 is about 3.6-fold higher than that of the molecule before.

`CC(=O)N1C[C@H](C(=O)N2CC(F)(F)C(F)(F)C2)[C@@H](c2ccc(NC(=O)[C@@H](NC(=O)c3ccnn3C(C)C)C3CCC(F)(F)CC3)cc2)C1` [Example 60]: the IC50 was determined as 315 nM.

Take `COC(=O)N1C[C@H](C(=O)N2CC(F)(F)C(F)(F)C2)[C@@H](c2ccc(NC(=O)[C@@H](NC(=O)c3ccnn3C(C)C)C3CCCCCC3)cc2F)C1` [Example 61]: the IC50 was found to be 66.8 nM. Against the preceding molecule, the IC50 is about 4.7-fold lower.

As for `CC(=O)N1CC(c2ccc(NC(=O)[C@@H](NC(=O)c3ccnn3C(C)C)C(C3CC3)C3CC3)cc2)[C@@H](C(=O)N2CC(F)(F)C(F)(F)C2)C1` (stereo partly drawn) [Example 63], the IC50 is 132 nM.

As for `CC(=O)N1C[C@H](c2ccc(NC(=O)[C@@H](NC(=O)c3ccnn3C(C)C)C3CCCCCC3)cc2)[C@H](C(=O)N2CC(F)(F)C(F)(F)C2)C1` [Example 64], the IC50 came to 11.5 nM.

For `CC(=O)N1C[C@H](C(=O)N2CC(F)(F)C(F)(F)C2)[C@H](c2ccc(NC(=O)[C@@H](NC(=O)c3ccnn3C(C)C)C3CCCCCC3)cc2)C1` [Example 65], the half-maximal inhibitory concentration (IC50) is 57.2 nM.

Regarding `CC(=O)N1C[C@H](c2ccc(NC(=O)[C@@H](NC(=O)c3ccnn3C(C)C)C3CCCCCC3)cc2)[C@H](C(=O)NCC(F)(F)F)C1` [Example 66], the IC50 worked out at 44.4 nM.

Turning to `CC(=O)N1C[C@H](c2ccc(NC(=O)[C@@H](NC(=O)c3ccnn3C(C)C)C3CCCCCC3)c(F)c2)[C@H](C(=O)N2CC(F)(F)C(F)(F)C2)C1` [Example 67], the IC50 stood at 31.4 nM.

On to `CC(=O)N1C[C@H](C(=O)N(C)CC(F)(F)F)[C@@H](c2ccc(NC(=O)[C@@H](NC(=O)c3ccnn3C(C)C)C3CCCCCC3)cc2)C1` [Example 68], for which the IC50 is 48.6 nM.
